Measured values taken from ChEMBL document CHEMBL3112482, “Nonclassical antifolates, part 5. Benzodiazepine analogs as a new class of DHFR inhibitors: synthesis, antitumor testing and molecular modeling study” (Eur J Med Chem, 2014).

Molecular target: T1, Dihydrofolate reductase (Bos taurus, UniProt P00376)
T1 sequence (P00376 whole entry): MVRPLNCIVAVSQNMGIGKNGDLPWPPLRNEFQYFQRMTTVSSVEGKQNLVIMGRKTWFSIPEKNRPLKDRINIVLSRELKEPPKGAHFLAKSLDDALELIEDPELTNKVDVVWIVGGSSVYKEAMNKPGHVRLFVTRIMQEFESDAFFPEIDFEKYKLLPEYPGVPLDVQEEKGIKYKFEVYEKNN
Test: Inhibition of bovine liver DHFR measured for every 1 min of 10 mins

IC50 [µM] | SMILES
21 | Cc1cc2c(cc1C)NC(c1ccc(Br)cc1)=C1CCC/C(=C\c3ccc(Br)cc3)C1=N2
1 | COc1cc(/C=C2\CCCC3=C(c4cc(OC)c(OC)c(OC)c4)Nc4cc(C)c(C)cc4N=C32)cc(OC)c1OC
12 | Clc1ccc(/C=C2\CCCC3=C(c4ccc(Cl)cc4)Nc4cc(Cl)c(Cl)cc4N=C32)cc1
